Tested on: NT immunoreactivity in astrocytes
Experiment: Example 2: astrocyte activation and NT immunoreactivity in hippocampus and regions bordering lateral ventricles after icv STZ
Format: in vivo, Sprague-Dawley rats
Conditions: 1 mg/kg/day orally, one week after icv STZ
Description: Male Sprague-Dawley rats (63) weighing 320-340 g, aged 4 months, were anesthetized by an intraperitoneal injection of Equithesin 0.3 ml/kg. STZ (0.5 mg) dissolved in 2 μl artificial cerebrospinal fluid (CSF) was injected into each lateral ventricle of 45 rats. The stereotaxic co-ordinates for icv injection were: 0.9 mm posterior, 1.8 mm lateral and 3.8 mm ventral from the bregma level. Control rats (18) received a bilateral injection of 2 μl artificial CSF. STZ-injected rats (25) were given ladostigil (1 mg/kg of the hemitartrate salt/day) orally in a volume of (1 ml/kg) from one week before, until 1 or 8 weeks after icv STZ. The remaining 20 rats received 1 ml/kg water. The rats were housed two per cage with free access to food and water until the behavioral, enzymatic and cytochemical measurements were completed. […]
Nitrotyrosine, (NT) a marker of nitrative/oxidative stress, was stained with rabbit anti-nitrotyrosine from Upstate (Lake Placid, N.Y., USA), diluted 1:100 followed by the secondary donkey anti-rabbit conjugated with horseradish peroxidase from Chemicon (Temecula, Calif., USA), was diluted 1:200. […] Images were obtained by bright field microscopy and quantitative assessments of appropriate markers were made using AnalySIS software. […]
For each quantitative analysis of NT-immunoreactive astrocytes, 3 sections were sampled from each rat. […]

C#CCN[C@@H]1CCc2ccc(OC(=O)N(C)CC)cc21 [ladostigil, R(+)-6-(N-methyl,N-ethyl-carbamoyloxy)-N′-propargyl-1-aminoindan]
Astrocyte activation and NT immunoreactivity in CA1, corpus callosum, medial and lateral septum: reduced both astrocyte activation and NT immunoreactivity in these brain regions to the level of that seen in CSF-injected controls

From US8420696B2, “Use of low-dose ladostigil for neuroprotection” (priority 2005, dated 2013)
